According to patent US7265091B2, “Methods and compositions for treating male erectile dysfunction” (The Regents of the University of California, priority 2000, dated 2007):

What was measured:
[1] = test system: venogenic erectile dysfunction in castrated rats; test: Pharmacologic cavernosometry, prevention trial in castrated rats (Experiment 2); type: in vivo, rat; settings: castrated rats treated at castration, cavernosometry 9 weeks after castration
Text: For the prevention trial of VEGF in rats with venogenic erectile ED, adult males were castrated and immediately treated with hormone, intracavernosal VEGF. […] Control animals received an silastic implant containing saline (n=3), an intracavernous injection of normal saline (n=3) or an […] transfection vector expressing lacZ reporter gene without the VEGF gene (AAV-LacZ, n=11).
A 1.5 cm oblique incision was made in the lower abdominal skin extending from the midline just above the penile hilum to below the level of the glans about 1 cm lateral to the midline. The skin was sharply dissected from the anterior surface of the penis and then the penis was retracted anteriorly using a towel clamp placed around it atraumatically with the foreskin left intact. Using blunt dissection the penile base and crura were exposed. The ischiocavernosus muscles were sharply dissected off the anterior surface of the crus until the white of the tunica albuginea of the corpora cavernosa was identified. The crus was then gently cannulated using a 23 gage butterfly needle, and saline flush with a visual erectile response was used to confirm that the needle tip was truly intracavernosal. The intracavernosal injections were then administered with either VEGF protein (Calbiochem, La Jolla, Calif. #676472) at the dosage 4 ug/injection (in 0.1 cc PBS with 0.1% BSA), AAV-VEGF (10^10 viral particles in 0.1 cc NS), AAV-LacZ (10^10 viral particles in 0.1 cc NS), or 0.1 ml NS alone. The AAV-VEGF and AAV-LacZ constructs were a generous gift from Dr. Yuet W. Kan (Howard Hughes Medical Research Institute, San Francisco, Calif.).^19,20 Following injection, the needle was left in place for 5 minutes and then removed to allow the medication to diffuse throughout the cavernosal space. Immediately thereafter, pinpoint electrocautery was applied to the needle hole for hemostasis and then the wound was closed and the animal recovered as above.
Following castration, testosterone- or saline-filled silastic implants were placed in the subcutaneous tissue of the anterior abdominal wall, as previously described.^17 Implants were prepared using sterile silastic tubing (Dow Coming, Midland, Mich. #602-265, inner diameter 0.062″) that was filled with testosterone propionate powder (Sigma Chemical, St. Louis, Mo.) with the aid of wall suction.
To perform pharmacologic cavemosometry, both the right and left crura were separately cannulated using 23 gauge butterfly needles as described above. One cannula was flushed with sterile heparinized saline (100 U heparin/ml NS) and attached to a pressure detector for continuous intracorporal pressure (ICP) monitoring as previously described.^11 The contralateral cannula was attached to an infusion pump (Harvard Pump, Southwick, Mass. #55-2222), filled with sterile dilute heparinized saline (20 U heparin/ml NS). The baseline ICP was recorded (flaccid ICP) and then a dose of papavarine (1 mg in 0.1 cc NS) was administered through the infusion cannula. Five minutes was allowed for the papavarine to diffuse throughout the corpora and then the infusion cannula was flushed with heparinized saline and the pressure monitor cannula vented to normalize ICP after flushing. After 5 minutes more, the ICP was again recorded (ICP after papavarine) and the infusion started. An infusion rate of 0.05 ml/min was started and increased (by 0.05 ml/min every 10 seconds) until the ICP started to rise. Subsequent increases in inflow rate were made only after the ICP reached a plateau pressure. By slowly adjusting the inflow rate, an intracorporal pressure of 100 cm H2O (erectile pressure) was reached and the infusion rate required to maintain this pressure recorded (the maintenance rate). After this pressure was steady for 20 seconds, the infusion was terminated and the change in ICP over the subsequent 60 seconds was recorded (the drop rate).

[2] = test system: penile smooth muscle (alpha actin); test: Alpha-smooth muscle actin immunohistochemistry of rat penis with image analysis; type: in vivo; settings: castrated rats
Procedure: Frozen sections were cut at 10 microns, adhered to charged slides, air dried for 15 minutes then rehydrated with 0.05M PBS for 5 minutes. […] The serum solution was drained and then sections were incubated for 60 minutes with mouse monoclonal anti-alpha-smooth muscle actin (Sigma, St. Louis, Mo.) at a dilution of 1:4000 in PBS. […] Immunochemistry was performed in penile tissues from 4 rats randomly chosen from each subgroup.
Cross-sectional micrographs of the rat penis at the proximal shaft were examined after immunohistochemistry for alpha actin. Alpha actin, a marker for penile smooth muscle, stains brown and can be seen surrounding the sinusoidal spaces. […] Computerized image analysis with Adobe Photoshop was used to quantify the area of immunostaining by counting the number of digitized pixels corresponding to the area of brown staining, thereby providing some numerical comparison of the quantity of smooth muscle in each specimen.

[3] = test system: dorsal nerve, intracavernous smooth muscle cells and endothelial cells; test: Transmission electron microscopy of penile tissue (Example 2); type: in vivo, rat
Text: Thick sections were cut and stained with toluidine blue to select specific areas for thin sectioning. Thin sections were cut, stained with both uranyl acetate and Reynold's Lead, and examined under the Phillips Tecnai 10 transmission electron microscope. Penile tissues from 4 randomly chosen rats in each subgroups were subjected to electron microscopic examinations.

[4] = test system: major pelvic ganglia (MPG); test: Nerve fiber outgrowth from cultured major pelvic ganglia; type: cell-based, rat; set-up: Average fiber length / FIBER LENGTH (average lengths of the growing fibers): unit not given here
Procedure: Each freshly isolated MPG was cut into 8 pieces of approximately equal size and each piece was then attached to a Matrigel-coated coverslip. The MPG pieces were cultured in serum-free medium supplemented with phosphate-buffered saline (PBS, control), 50 ng/ml of vascular endothelial growth factor (VEGF), 20 ng/ml of brain-derived neurotrophic factor (BDNF), or VEGF+BDNF. After 2 days of incubation, the ganglial tissues with their outgrowing nerve fibers were stained for the expression of NADPH diaphorase and acetylcholinesterase (AchE).
We have been using several experimental systems to test the efficacy of combination growth factor therapies for impotence. One system employs cultured rat major pelvic ganglia (MPG) that are known to innervate all urogenital organs, including the penis. We discovered that the cultured MPG are able to sprout new nerve fibers (nerve regeneration) from the axonal ends during the first 3 days of culture, especially when treated with VEGF, BDNF, NT-3, or NT-4.

[5] = test system: blood vessels and nerve fibers in the penis; test: Penile tissue histology, nNOS staining and electron microscopy (Example 9); type: in vivo, rat; settings: 3 months after bilateral cavernous nerve freezing
Procedure: Three months old Sprague-Dawley rats (N=30) were used: 6 underwent a sham operation; 24 underwent bilateral cavernous nerve freezing and then randomly divided into four groups of 6 each. The four groups of rats received intracavernous injection of one of the following: 1) phosphate buffered saline (PBS), 2) VEGF protein (4 μg), 3) adeno-associated virus (AAV)-BDNF, and 4). VEGF+AAV-BDNF. Erectile function was assessed by cavernous nerve electrostimulation 3 months later and samples of penile tissue were obtained for electron microscopy and immunohistochemical studies.

[6] = test system: outgrowing blood vessels in artery-muscle co-culture; test: Artery-muscle co-culture; type: cell-based
Text: We extended our above angiogenesis model to include muscles in a co-culture system. The source of muscle was corpus cavernosum, urethra sphincter, or bladder. […] In addition, the combination of VEGF and PDGF encouraged more extensive contacts between the outgrowing vessels with the muscle. More studies with either single or a combination of other growth factors and the molecular mechanism of vessel growth are currently underway. Once the best growth factor or combinations are identified, we will perform in vivo studies in rats with severe vasculogenic ED to see if the in vitro assay helps identify the best angiogenins.

VSMC (aorta SMC) = settings: VSMC from 16-weeks-old rats
Procedure: Primary aorta SMC cultures were prepared similarly with aortas isolated from 16-week-old male rats.
Cell migration assays were performed in 6.5-mm Transwell chambers of Corning Costar Corporation (Cambridge, Mass.). The Transwell inserts (upper chambers) were bathed in a solution containing 13.4 μg/ml fibronectin in PBS at 37° C. for 1 hr and allowed to air-dry. The dried upper chambers were then placed in the lower chambers, each of which contained 700 μl of serum-free DMEM supplemented with 0.1% BSA and 0 to 500 ng/ml of VEGF. SMC that had been grown to 70% confluence were further conditioned in serum-free DMEM (containing 0.1% BSA) for 2 hr and then trypsinized. The trypsinized cells were washed in PBS and resuspended at a concentration of 80,000 cells per ml in serum-free DMEM (containing 0.1% BSA). One hundred μl of the cell suspension was then added to each upper chamber. After 4 hr of incubation at 37° C., all liquid in the upper and lower chambers was removed by aspiration. The membranes in the upper chambers were subsequently fixed in 1% buffered formalin for 5 min and stained with 2% crystal violet. Non-migratory cells on the upper side of the membranes were scraped off with cotton swabs. Well locations were marked on the membranes and total cells per well were counted visually in a masked fashion. Well locations were then correlated with the concentrations of VEGF in the wells. […]

[7] = test system: Rodent Model of Neurogenic Erectile Dysfunction; settings: VEGF 4 ug intracavernous, three months after bilateral cavernous nerve freezing
Procedure: Seventeen 3 months old Sprague Dowry rats underwent bilateral freezing of the cavernous nerves with a thermocouple immersed in liquid nitrogen. Through an abdominal incision both cavernous nerves were isolated lateral to the prostate and frozen with thermocouple for one minute twice (temperature cycle −130° C. to −3° C.). Minutes later, intracavernous injection of saline (n=7) or VEGF, 4 ug, (n=9) was given. Three months later, all rats underwent re-exploration and electrostimulation of the cavernous nerves to assess erectile function. Eight additional rats underwent exploration only (sham group)

[8] = castrated rats treated with VEGF or AAV-VEGF (pooled)
[9] = 50 ng/ml VEGF, 20 ng/ml BDNF, 2 days of incubation

VEGF was tested, and the “Drop Rate in 1 min.” value [1] was 9.0(+/−20) cm H2O, the “Flaccid ICP” value [1] was 27.8 cm H2O and the “ICP After Papavarine” value [1] was 85.0(+/−28) cm H2O. The “Maintenance Rate” value [1] was 0.04(+/−0.09) ml/min, the “quantity of penile smooth muscle, qualitative” value [2] was “returns to normal morphology” and the “pixel count of alpha actin immunostaining (quantity of smooth muscle)” value ([2]; proximal penile shaft) was 52990. For the same substance, the “endothelial cells lining capillaries and sinusoids” value ([3]; castrated rats) was “endothelial hypertrophy and hyperplasia”, the “mean diameter of non-myelinated axons, dorsal nerve” value [3, 8] was 0.96±0.33 μm and the “mean diameter of the myelinated nerve, dorsal nerve” value [3, 8] was 2.36±0.92 μm. The “mean thickness of myelin sheath, dorsal nerve” value [3, 8] was 0.93±0.44 μm, the “intracavernous smooth muscle morphology” value ([3]; castrated rats, compared to castrated+Lac Z rats) was “arranged in clusters with minimal intercellular spaces” and the AchE staining intensity [4, 9] was 8,470±199 IDV. The NADPH staining intensity [4, 9] was 10,126±187 IDV, the “FIBER LENGTH (average lengths of the growing fibers)” value ([4]; 48 hours after culturing) was 89 and the “nNOS positive nerve fibers in the dorsal nerves compared to PBS group” value [5] was “increased number”. The “cell growth in artery-muscle co-culture” value [6] was “encourage the growth of endothelial cells”, the “effect on migration of VSMC” value (VSMC (aorta SMC)) was “stimulated migration” and the maximal intracavernous pressure [7] was 72.78±10.87 cm H2O.
